Data: US20060014938A1, “Stable aqueous colloidal lanthanide oxides” (priority 2004, published 2006)

Key:
[1] = MRI of tubes using a T1 pulse sequence; details: 1.0 and 0.1 nM Gd, same molar concentrations
Experimental: Colloidal gadolinium Oxide prepared according to Example 9, and Gadolinium DTPA, each at a concentration of each of 1.0 and 0.1 nM Gd, were added to a volume of 1 mL in a 2 mL screw cap plastic tube, and were subjected to MRI using a T1 pulse sequence.
Row 3 is water, a negative control.

[2] = Source text: Table 1 summarizes characteristics of gadolinium DTPA (a previously described MRI contrast agent) and of compositions that are gadolinium oxide complexed with reduced dextran as provided herein, comparing characteristics of these to an ideal vascular contrast agent.
mice = details: cited from earlier work
[3] = system: pig mesenchymal stem cells (MSC); test: Cell viability test; assay type: cell-based
Experimental: FIG. 1 is a set of photomicrographs showing results from a cell viability test using Pig MSCs.
In all experiments colloid was incubated with cells in growth medium for 12 hours (at a concentration of 1 mg Eu/mL) which was then washed away.

[4] = Size and aqueous stability of colloid after crosslinking or surface modification; assay type: physicochemical
Experimental: The dextran covered lanthanide colloid was prepared according to Example 6 except that lanthanum chloride was substituted for samarium chloride. In a fume hood, to 40 mL of colloid was added 100 mL of 5M NaOH, 40 mL distilled water and 40 mL epichlorohydrin. The mixture was incubated at room temperature for about 24 hours with shaking to promote interaction of the organic phase (epichlorohydrin) and aqueous phase which includes the dextran covered colloid. Epichlorohydrin was removed by placing the colloid in a dialysis bag and dialyzing against 20 changes of distilled water of 20 liters each. After dialysis, the product was filtered through a 0.2 micron filter and stored at 4° C. The size and aqueous stability of the colloid suspension were unaffected by this treatment.
The reduced dextran covered colloid was prepared essentially according to Example 10 except that lutetium chloride was substituted for gadolinium chloride. In a fume hood, to 40 mL of colloid was added 100 mL of 5M NaOH, 40 mL of distilled water and 40 mL of epichlorohydrin. The mixture was incubated at room temperature for about 24 hours with shaking to promote interaction of the organic phase (epichlorohydrin) and aqueous phase which includes the dextran covered colloid. Epichlorohydrin was removed by placing the colloid in a dialysis bag and dialyzing against 5 changes of distilled water of 4 liters each. […]

O=C([O-])CN(CCN(CC(=O)[O-])CC(=O)[O-])CCN(CC(=O)[O-])CC(=O)[O-].[Gd+3] [Gadolinium DTPA]
potency as contrast agent (T1 weighted image) [1]: equally potent | Autoclavable without excipients [2]: Yes | Non toxic at vast excess [2]: Yes

[Cl][Gd]([Cl])[Cl] [gadolinium chloride]
most common lesions after injection (mice): mineral emboli in capillaries, accumulation of mineral in the mononuclear phagocytic system, hepatocellular necrosis, and lymphoid depletion, necrosis and mineralisation in the spleen

C[CH2][Hg][S]c1ccccc1C(=O)[O-].[Na+] [thimerasol]
state of cells (FIG. 1 Panel C) ([3]; added to growth medium, after 24 hours): severe deterioration | time to cell death ([3]; positive control): less than 24 hours

Gadolinium Oxide Colloid Modified with Biotin [Example 22]
size and aqueous stability of the colloid suspension after the treatment [4]: unaffected
